# Earlier results, collected in patent US10968484B2, “Methods of identifying responses to map kinase inhibition therapy” (The Broad Institute, Inc., priority 2013, dated 2021).
# Read-outs that look alike come from different tables or passages of the source.
# Test system: BRAF_V600-mutant melanomas (cell lines)
# Conditions: read-out: PLX4720 IC50
compound,measurement,setting,value
CCCS(=O)(=O)Nc1ccc(F)c(C(=O)c2c[nH]c3ncc(Cl)cc23)c1F [PLX4720],IC50,resistance class of BRAF_V600-mutant melanoma cell lines,≥ 8 µM
same,IC50,sensitive class of BRAF_V600-mutant melanoma cell lines,< 1.6 µM
